According to patent publication US20240108654A1, “COMBINATION OF A T CELL THERAPY AND A DGK INHIBITOR” (Juno Therapeutics, Inc., priority 2021, published 2024):

Tests used:
Human venous whole blood = assay: Human whole blood IFN-γ assay; assay type: cell-based; conditions: anti-CD3 and anti-CD28 1 μg/mL each, 24 hours; 3 μM reference compound as 100% activation; read-out: INFg Whole Blood Normalized Agonist EC50
Description: Human venous whole blood (22.5 μL per well), obtained from healthy donors, was pre-treated with compounds for one hour at 37° C. in a humidified 95% air/5% CO2 incubator. The blood was stimulated with 2.5 μL anti-human CD3 and anti-CD28 mAb at a final concentration of 1 μg/mL each for 24 hours at 37° C. IFN-γ in the supernatants was measured using ALphLISA kit (Cat #AL217).

[1] = tested on: anti-CD19 CAR-expressing T cells; assay: CAR-T cell phenotype after stimulation with CAR-specific anti-idiotypic antibody (flow cytometry); assay type: cell-based, human; conditions: 48-hour stimulation with 3 or 30 μg/mL anti-idiotypic antibody; compound 0.1-1000 nM; two donors
Source text: T cell compositions containing T cells expressing an exemplary anti-CD19 CAR were generated from leukapheresis samples from two healthy human adult donors by a process that included immunoaffinity-based selection of T cells by separately selecting CD4+ and CD8+ cells from the samples, resulting in two compositions enriched for CD4+ and CD8+ cells, respectively, per donor. Cells of the enriched CD4+ and CD8+ compositions were separately activated with anti-CD3/anti-CD28 beads and subjected to lentiviral transduction with a vector encoding an anti-CD19 CAR. […]
Prior to use, the cryopreserved CD4+ and CD8+ CAR-engineered cell compositions were thawed and combined at approximately a 1:1 CD4:CD8 ratio for each donor to prepare a combined CD4+ CAR+ and CD8+ CAR+ T cell composition. The effects of treatment with Compound 17 at various concentrations (0.1 nM, 1 nM, 10 nM, 100 nM, or 1000 nM) added at day 0 during stimulation of the combined CAR-T cell composition with a plate-bound CAR-specific anti-idiotypic antibody (see, e.g., WO2018/023100) or during co-culture with CD19-expressing cells was then assessed. […]

[2] = tested on: anti-CD19 CAR-expressing T cells; assay: Cytolytic activity of CAR-T cells concurrently treated during chronic stimulation, 3D tumor spheroids; assay type: cell-based, human; conditions: concurrent treatment during chronic stimulation; A549.CD19 and Granta-519 spheroids, day 9
Description: (§1) To simulate conditions of chronic stimulation, approximately 20,000 anti-CD19 CAR-expressing T cells of a combined CAR-T cell composition produced as described in Example 1 from two healthy adult donors were incubated with 30 μg/mL of plate-bound CAR-specific anti-idiotypic antibody (see, e.g., WO2018/023100) at 37° C. for a period of seven days. During this seven-day period, engineered CAR T cells were concurrently treated with Compound 17 (0.1-1000 nM) or a vehicle control added at day 0.
(§2) To further assess activity of chronically stimulated cell, the chronically stimulated CAR-T cells that had been concurrently treated with DGKi were incubated with A549 CD19+ tumor spheroids or Granta-519 tumor spheroids to rechallenge the CAR-T cells at an effector to target ratio of 1:2 for up to 14 days. The tumor spheroids were engineered to express a red fluorescent dye to permit monitoring of tumor cell lysis by microscopy during the assay.
The antigen-specific cytolytic activity of the chronically stimulated CAR-expressing T cells was assessed by monitoring fluorescence (indicative of tumor cell lysis) over time. The tumor volume (normalized to time zero) was measured as the number of red calibrated units (RCU)×μm^2 area. […] Duplicate values for cell compositions manufactured from the two different healthy donors are shown.

[3] = tested on: anti-CD19 CAR-expressing T cells; assay: Cytokine production (MSD) of CAR-T cells concurrently treated during chronic stimulation, 3D tumor spheroids; assay type: cell-based, human; conditions: concurrent treatment during chronic stimulation; five days 3D co-culture with A549.CD19 and Granta-519 spheroids
Description: as §1, §2
Supernatant was collected at day 5 from the above tumor spheroid cultures with chronically stimulated CAR-expressing T cells. Cytokine production was measured from the supernatant by meso scale discovery (MSD) analysis of the collected cell supernatants. […] Duplicate values for cell compositions manufactured from the two different healthy donors are shown.

[4] = tested on: anti-CD19 CAR-expressing T cells; assay: Activation phenotype of CAR-T cells chronically stimulated with concurrent compound treatment; assay type: cell-based, human; conditions: seven-day chronic stimulation, concurrent compound 0.1-1000 nM
Description: as §1

anti-HPV16 eTCR T cells = assay: Proliferation (cell counts) of chronically stimulated eTCR T cells re-stimulated with anti-Vbeta antibody; assay type: cell-based, human; conditions: re-stimulation 7 days with 20 μg/mL anti-Vbeta, 100 nM compound
Source text: Primary human CD4+ and CD8+ T cells were isolated from healthy donors by immunoaffinity-based methods. The isolated CD4+ and CD8+ T cells were combined and stimulated with an anti-CD3/anti-CD28 reagent, and then were transduced with a lentiviral vector encoding an anti-human papillomavirus 16 (anti-HPV16) eTCR. The nucleotide sequences encoding the beta chain and the alpha chain of the eTCR were separated by a sequence encoding a 2A ribosome skip element. Following transduction, the cells were cultured in media containing human serum and cytokines for 9-10 days prior to further assessment. In another experiment to assess activity of the DGKi to rescue or reverse exhaustion, eTCR T cells were chronically stimulated for 6 days as described above in the absence of Compound 17. […] As a control, chronically stimulated eTCR T cells were re-stimulated in the absence of Compound 17 for 7 days. At the end of the 7 day re-stimulation, cell counts were determined. […] As expected, in the absence of treatment with Compound 17, there was an overall reduction in the ability of chronically stimulated T cells to proliferate compared to fresh eTCR T cells (compare conditions (1) and (3)).

[5] = tested on: anti-CD19 CAR-expressing T cells; assay: Activated effector phenotype of CD4+ and CD8+ CAR-expressing cells under acute stimulation; assay type: cell-based, human

CC[C@H]1CN([C@@H](CC)c2ccc(C(F)(F)F)cc2)[C@H](CC)CN1c1nc(=O)n(C)c2ccc(C#N)nc12 [Compound 17, 4-((2S,5R)-2,5-diethyl-4-((S)-1-(4-(trifluoromethyl)phenyl)propyl)piperazin-1-yl)-1-methyl-2-oxo-1,2-dihydropyrido[3,2-d]pyrimidine-6-carbonitrile]
EC50 (Human venous whole blood): 20 nM
expression of CD27 and CD62L (% positive cells and MFI, presence vs. absence of compound) [1]: decreased
expression of CD69 and PD-1 (% positive cells and MFI, presence vs. absence of compound) [1]: increased
CAR-T cell cytolytic activity (normalized tumor volume) [2]: modestly reduced the cytolytic activity
production of IFNγ, IL-2 and TNFα in supernatant [3]: dose-dependent increase in production of all three cytokines
populations of highly activated CAR-T cells (CD69, PD-1 high) [4]: increased populations of highly activated CAR-T cells
proliferation of eTCR T cells (cell counts) (anti-HPV16 eTCR T cells): increased proliferation
number of CD4+ and CD8+ CAR-expressing cells having an activated effector phenotype [5]: increased
